From BindingDB's records for doi:10.1021/jm050820s (Schering-Plough Research Institute, 2006)

Biological target: Genome polyprotein (Hepatitis C virus genotype 1a (isolate H77), UniProt P27958)
Assay: Continuous Spectrophotometric Assay
Protocol: Proteolytic cleavage of the ester linkage between the Nva (L-norvaline) and the chromophore (PAP) was monitored for change in absorbance at 370 nm. Initial velocities were determined using linear regression and kinetic constants were obtained by fitting the data to the Michaelis-Menten equation.

Chain of Genome polyprotein (P27958 1027-1657 limits assumed): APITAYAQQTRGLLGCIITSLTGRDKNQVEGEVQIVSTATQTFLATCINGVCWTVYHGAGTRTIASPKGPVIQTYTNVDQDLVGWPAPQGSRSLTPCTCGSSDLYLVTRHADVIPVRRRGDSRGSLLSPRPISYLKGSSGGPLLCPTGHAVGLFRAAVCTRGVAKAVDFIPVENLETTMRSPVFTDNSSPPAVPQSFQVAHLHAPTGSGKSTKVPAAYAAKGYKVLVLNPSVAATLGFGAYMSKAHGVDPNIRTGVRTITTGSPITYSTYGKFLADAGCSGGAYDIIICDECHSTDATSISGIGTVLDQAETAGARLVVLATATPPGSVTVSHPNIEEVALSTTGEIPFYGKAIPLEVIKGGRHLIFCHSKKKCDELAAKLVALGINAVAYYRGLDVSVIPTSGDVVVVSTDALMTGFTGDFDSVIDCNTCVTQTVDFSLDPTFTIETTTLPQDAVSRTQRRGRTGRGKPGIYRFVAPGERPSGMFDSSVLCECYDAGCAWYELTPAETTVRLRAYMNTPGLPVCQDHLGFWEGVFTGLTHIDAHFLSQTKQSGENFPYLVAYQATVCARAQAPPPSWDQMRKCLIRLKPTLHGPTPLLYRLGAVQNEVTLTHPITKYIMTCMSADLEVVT

Ki | Structure (SMILES) | Ki (pH 6.5, 30 °C)
36 nM | CCCC(NC(=O)[C@@H]1C[C@@H]2CN1C(=O)[C@H](C1CCCCC1)NC(=O)Cc1cccc(c1)OCCCN2S(=O)(=O)c1ccccc1)C(=O)C(=O)NCC(=O)N[C@H](C(=O)N(C)C)c1ccccc1 (stereo partly drawn) [3-{[(7R,9S,12S)-6-(benzenesulfonyl)-12-cyclohexyl-11,14-dioxo-2-oxa-6,10,13-triazatricyclo[14.3.1.1^{7,10}]henicosa-1(20),16,18-trien-9-yl]formamido}-N-({[(S)-(dimethylcarbamoyl)(phenyl)methyl]carbamoyl}methyl)-2-oxohexanamide] | 
 | CCCC(NC(=O)[C@@H]1C[C@@H]2CN1C(=O)[C@H](C1CCCCC1)NC(=O)Cc1cccc(c1)OCCCCO2)C(=O)C(=O)NCC(=O)N[C@H](C(=O)N(C)C)c1ccccc1 (stereo partly drawn) [3-{[(5S,8S,10R)-5-cyclohexyl-3,6-dioxo-11,16-dioxa-4,7-diazatricyclo[15.3.1.1^{7,10}]docosa-1(20),17(21),18-trien-8-yl]formamido}-N-({[(S)-(dimethylcarbamoyl)(phenyl)methyl]carbamoyl}methyl)-2-oxohexanamide] | 7 nM
 | CCC[C@H](NC(=O)[C@@H]1C[C@H]2CN1C(=O)[C@H](C(C)(C)C)NC(=O)Cc1cccc(c1)OCCCO2)C(=O)C(=O)NCC(=O)N[C@H](C(=O)N(C)C)c1ccccc1 [(2S)-({N-[(3S)-3-({[(7S,9S,12S)-12-tert-butyl-11,14-dioxo-2,6-dioxa-10,13-diazatricyclo[14.3.1.17,10]henicosa-1(20),16,18-trien-9-yl]carbonyl}amino)-2-oxohexanoyl]glycyl}amino)(phenyl)acetic acid N,N-dimethyl amide] | 130 nM
 | CCC[C@H](NC(=O)[C@@H]1C[C@@H]2CN1C(=O)[C@H](C(C)(C)C)NC(=O)Cc1cccc(c1)OCCCO2)C(=O)C(=O)NCC(=O)N[C@H](C(=O)N(C)C)c1ccccc1 [(2S)-({N-[(3S)-3-({[(7R,9S,12S)-12-tert-butyl-11,14-dioxo-2,6-dioxa-10,13-diazatricyclo[14.3.1.17,10]henicosa-1(20),16,18-trien-9-yl]carbonyl}amino)-2-oxohexanoyl]glycyl}amino)(phenyl)acetic acid N,N-dimethyl amide] | 15 nM
3300 nM | CCCC(NC(=O)[C@@H]1C[C@@H]2CN1C(=O)[C@H](C1CCCCC1)NC(=O)Cc1cccc(c1)OCCCS2(=O)=O)C(=O)C(=O)NCC(=O)N[C@H](C(=O)N(C)C)c1ccccc1 (stereo partly drawn) [(2S)-({N-[3-({[(7R,9S,12S)-12-cyclohexyl-6,6-dioxido-11,14-dioxo-2-oxa-6-thia-10,13-diazatricyclo[14.3.1.17,10]henicosa-1(20),16,18-trien-9-yl]carbonyl}amino)-2-oxohexanoyl]glycyl}amino)(phenyl)acetic acid N,N-dimethyl amide] | 
 | CCCC(NC(=O)[C@@H]1C[C@@H]2CN1C(=O)[C@H](C1CCCCC1)NC(=O)Cc1cccc(c1)OCCO2)C(=O)C(=O)NCC(=O)N[C@H](C(=O)N(C)C)c1ccccc1 (stereo partly drawn) [3-{[(6R,8S,11S)-11-cyclohexyl-10,13-dioxo-2,5-dioxa-9,12-diazatricyclo[13.3.1.1^{6,9}]icosa-1(19),15,17-trien-8-yl]formamido}-N-({[(S)-(dimethylcarbamoyl)(phenyl)methyl]carbamoyl}methyl)-2-oxohexanamide] | 30 nM
 | CCCC(NC(=O)[C@@H]1C[C@@H]2CN1C(=O)[C@H](C1CCCCC1)NC(=O)Cc1cccc(c1)OCCCS2)C(=O)C(=O)NCC(=O)N[C@H](C(=O)N(C)C)c1ccccc1 (stereo partly drawn) [(2S)-({N-[3-({[(7R,9S,12S)-12-cyclohexyl-11,14-dioxo-2-oxa-6-thia-10,13-diazatricyclo[14.3.1.17,10]henicosa-1(20),16,18-trien-9-yl]carbonyl}amino)-2-oxohexanoyl]glycyl}amino)(phenyl)acetic acid N,N-dimethyl amide] | 10 nM
